pEC50, pIC50: −log10 of the molar value.
Legend:
[1] = target: T1, STAT6 (Homo sapiens, UniProt P42226); assay: STAT6 Reporter Luciferase Assay (IL-13 stimulated HaCaT keratinocyte NanoLuc reporter cells); assay type: cell-based; conditions: STAT6 NanoLuc luciferase reporter, IL-13 stimulated HaCaT keratinocyte cells; read-out: Reporter EC50
T1 construct: stably transfected HaCaT keratinocyte cell line, which expresses NanoLuc luciferase reporter gene under the transcriptional control of the STAT6 responsive promoter; endogenous in cells; host or cells: HaCaT keratinocyte reporter cell line (stably transfected with a NanoLuc reporter)
T1 sequence (P42226 1-847): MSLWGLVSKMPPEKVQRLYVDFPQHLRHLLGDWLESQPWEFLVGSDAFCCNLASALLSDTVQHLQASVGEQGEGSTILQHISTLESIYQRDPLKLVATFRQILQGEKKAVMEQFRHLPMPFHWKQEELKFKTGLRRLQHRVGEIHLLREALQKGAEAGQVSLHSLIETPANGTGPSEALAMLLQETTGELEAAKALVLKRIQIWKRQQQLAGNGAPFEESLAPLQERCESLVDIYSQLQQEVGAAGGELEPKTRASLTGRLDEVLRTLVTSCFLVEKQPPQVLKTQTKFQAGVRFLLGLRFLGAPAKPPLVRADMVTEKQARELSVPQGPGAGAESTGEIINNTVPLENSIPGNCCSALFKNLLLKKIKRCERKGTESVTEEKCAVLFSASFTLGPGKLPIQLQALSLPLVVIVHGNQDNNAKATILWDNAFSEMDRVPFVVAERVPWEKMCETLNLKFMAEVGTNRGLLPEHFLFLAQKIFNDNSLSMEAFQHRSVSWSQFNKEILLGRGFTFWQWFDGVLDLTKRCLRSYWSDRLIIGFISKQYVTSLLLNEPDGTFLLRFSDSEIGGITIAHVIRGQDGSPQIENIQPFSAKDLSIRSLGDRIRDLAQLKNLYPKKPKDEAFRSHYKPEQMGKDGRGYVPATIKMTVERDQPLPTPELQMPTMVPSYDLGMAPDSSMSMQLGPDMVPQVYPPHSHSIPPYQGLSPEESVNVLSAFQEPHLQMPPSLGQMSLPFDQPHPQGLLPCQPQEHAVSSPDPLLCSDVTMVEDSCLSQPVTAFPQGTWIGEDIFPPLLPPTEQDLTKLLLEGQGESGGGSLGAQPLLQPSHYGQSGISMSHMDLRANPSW
Summary of the method: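 Cells were plated overnight, washed, exposed to compound for two hours, stimulated with IL-13 (0.12 nM final) for four hours at 37 °C, and then lysed with Nano-Glo substrate for 15 min before luminescence reading.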

[2] = tested on: CCL17 secretion in peripheral human whole blood; assay: Human Whole Blood (HWB) CCL17 TR-FRET Assay (IL-13 stimulated CCL17 secretion); assay type: cell-based; conditions: Homo sapiens, 48 h, inhibition of CCL17 secretion in human whole blood, 10 ng/mL IL13, 48 hours
Experimental: The IC50 (half-maximal concentration required for inhibition) of compounds for the inhibition of CCL17 secretion in peripheral human whole blood, stimulated through the IL-13-IL-13 receptor/IL-4 receptor pathway was evaluated with a TR-FRET sandwich ELISA CCL17 (TARC) Assay Kit (Bioauxilium).
Test compounds (solubilized and serially diluted in DMSO, in an 11 point, 3-fold dilution series in duplicate) were spotted, 80 nL per well, into a 384 well v-bottom polypropylene plate. Human whole blood was collected from a peripheral vein, 714 units of sodium heparin was added for every 50 mL of blood collected. Sixty μL per well of blood was added to the compound plate. The blood plate was incubated for two hours at 37° C. After two hours, CCL17 production was stimulated with the addition of 20 μL per well of IL13 (R&D Systems) in HBSS with calcium and magnesium, with a final concentration of 10 ng/mL IL13. The plate containing blood, compound, and IL-13 was incubated at 37° C. for 48 hours, to allow for CCL17 production. After 48 hours, the plate was centrifuged at 1,500 revolutions per minute (RPM) for 7 minutes, with no braking. The CCL17 TR-FRET Assay Kit detection reagent was prepared according to kit instructions and 4 μL per well of the antibody cocktail was added to a 384-well white low volume non-binding coated plate (Corning). Sixteen μL of serum from the centrifuged blood plate was transferred to the detection plate containing the TR-FRET antibody cocktail. The plate was centrifuged briefly, then covered and incubated 16 hours at room temperature. The plate was then read on an EnVision 2105 multilabel reader (PerkinElmer) with settings for TR-FRET Ratio=10,000×(fluorescence intensity 665 nm/fluorescence intensity 615 nm).

Compound | pEC50 [1] | pIC50 [2]
CCC(C)n1nc(C(=O)NCc2ccc(NC(=O)N(C)C)cc2)c2c1CCN(c1ccc(C(=O)N(C)C)cn1)C2 (racemic) [Example 85, rac-(R)-1-(sec-butyl)-5-(5-(dimethylcarbamoyl)pyridin-2-yl)-N-(4-(3,3-dimethylureido)benzyl)-4,5,6,7-tetrahydro-1H-pyrazolo[4,3-c]pyridine-3-carboxamide] | 8.22 | 7.05
CN(C)C(=O)Nc1ccc(CNC(=O)c2nn(C)c3c2[C@H]2CC[C@@H](C3)N2c2ccc(C(=O)N(C)C)cn2)cc1 (racemic) [Example 86, rac-(4R,7S)-9-(5-(dimethylcarbamoyl)pyridin-2-yl)-N-(4-(3,3-dimethylureido)benzyl)-1-methyl-1,4,5,6,7,8-hexahydro-4,7-epiminocyclohepta[c]pyrazole-3-carboxamide] | < 5.00 | < 4.52
CN(C)C(=O)Nc1ccc(CNC(=O)c2nn(C3CCOC3)c3c2CN(c2ccc(C(=O)N(C)C)cn2)CC3)cc1 (racemic) [Example 90, rac-(R)-5-(5-(dimethylcarbamoyl)pyridin-2-yl)-N-(4-(3,3-dimethylureido)benzyl)-1-(tetrahydrofuran-3-yl)-4,5,6,7-tetrahydro-1H-pyrazolo[4,3-c]pyridine-3-carboxamide] | 7.60 | 7.17
CCC1CN(c2ccc(C(=O)N(C)C)cn2)Cc2c(C(=O)NCc3ccc(NC(=O)N(C)C)cc3)nn(CC)c21 (racemic) [Example 115, rac-(R)-5-(5-(dimethylcarbamoyl)pyridin-2-yl)-N-(4-(3,3-dimethylureido)benzyl)-1,7-diethyl-4,5,6,7-tetrahydro-1H-pyrazolo[4,3-c]pyridine-3-carboxamide] | 8.70 | 7.92
CCC1Cc2c(c(C(=O)NCc3ccc(NC(=O)N(C)C)cc3)nn2CC)CN1c1ccc(C(=O)N(C)C)cn1 (racemic) [Example 116, rac-(R)-5-(5-(dimethylcarbamoyl)pyridin-2-yl)-N-(4-(3,3-dimethylureido)benzyl)-1,6-diethyl-4,5,6,7-tetrahydro-1H-pyrazolo[4,3-c]pyridine-3-carboxamide] | 8.00 | 7.21
CC(C)n1nc(C(=O)NCc2ccc(NC(=O)N(C)C)cn2)c2c1C(C(F)(F)F)CN(c1ccc(C(=O)N(C)C)cn1)C2 (racemic) [Example 121, rac-(R)-5-(5-(dimethylcarbamoyl)pyridin-2-yl)-N-((5-(3,3-dimethylureido)pyridin-2-yl)methyl)-1-isopropyl-7-(trifluoromethyl)-4,5,6,7-tetrahydro-1H-pyrazolo[4,3-c]pyridine-3-carboxamide] | 9.00 | 8.22
CC(C)n1nc(C(=O)NCc2ccc(NC(=O)N3CCC(C)(O)C3)cc2)c2c1CCN(c1ccc(C(=O)N(C)C)cn1)C2 (racemic) [Example 160, rac-(R)-5-(5-(dimethylcarbamoyl)pyridin-2-yl)-N-(4-(3-hydroxy-3-methylpyrrolidine-1-carboxamido)benzyl)-1-isopropyl-4,5,6,7-tetrahydro-1H-pyrazolo[4,3-c]pyridine-3-carboxamide] | 7.82 | 7.68
CC(C)n1nc(C(=O)NCc2ccc(NC(=O)N3CCC4(CNCCO4)C3)cc2)c2c1CCN(c1ccc(C(=O)N(C)C)cn1)C2 (racemic) [Example 164, rac-(R)-N-(4-((5-(5-(dimethylcarbamoyl)pyridin-2-yl)-1-isopropyl-4,5,6,7-tetrahydro-1H-pyrazolo[4,3-c]pyridine-3-carboxamido)methyl)phenyl)-6-oxa-2,9-diazaspiro[4.5]decane-2-carboxamide] | 7.89 | 7.35

Continued, values first:

pEC50 [1] | pIC50 [2] | Compound
7.70 | 7.21 | COCC(C)n1nc(C(=O)NCc2ccc(NC(=O)N(C)C)cc2)c2c1CCN(c1ccc(C(=O)N(C)C)cn1)C2 (racemic) [Example 92, rac-(R)-5-(5-(dimethylcarbamoyl)pyridin-2-yl)-N-(4-(3,3-dimethylureido)benzyl)-1-(1-methoxypropan-2-yl)-4,5,6,7-tetrahydro-1H-pyrazolo[4,3-c]pyridine-3-carboxamide]
6.28 | 5.64 | CC(C)n1nc(C(=O)NCc2ccc(NC(=O)N(C)C)cc2)c2c1CCN(c1ccc(N3CC(O)CC3=O)cn1)C2 (racemic) [Example 93, rac-(R)-N-(4-(3,3-dimethylureido)benzyl)-5-(5-(4-hydroxy-2-oxopyrrolidin-1-yl)pyridin-2-yl)-1-isopropyl-4,5,6,7-tetrahydro-1H-pyrazolo[4,3-c]pyridine-3-carboxamide]
9.00 | 8.22 | CC1CN(c2ccc(C(=O)N(C)C)cn2)Cc2c(C(=O)NCc3ccc(NC(=O)N(C)C)cc3)nn(C(C)C)c21 (racemic) [Example 95, rac-(R)-5-(5-(dimethylcarbamoyl)pyridin-2-yl)-N-(4-(3,3-dimethylureido)benzyl)-1-isopropyl-7-methyl-4,5,6,7-tetrahydro-1H-pyrazolo[4,3-c]pyridine-3-carboxamide]
8.30 | 7.28 | CC(n1nc(C(=O)NCc2ccc(NC(=O)N(C)C)cc2)c2c1CCN(c1ccc(C(=O)N(C)C)cn1)C2)C(F)(F)F (racemic) [Example 101, rac-(R)-5-(5-(dimethylcarbamoyl)pyridin-2-yl)-N-(4-(3,3-dimethylureido)benzyl)-1-(1,1,1-trifluoropropan-2-yl)-4,5,6,7-tetrahydro-1H-pyrazolo[4,3-c]pyridine-3-carboxamide]
7.64 | 7.11 | CCC1CN(c2ccc(C(=O)N(C)C)cn2)Cc2c(C(=O)NCc3ccc(NC(=O)N(C)C)cc3)nc(C)n21 (racemic) [Example 130, rac-(R)-7-(5-(dimethylcarbamoyl)pyridin-2-yl)-N-(4-(3,3-dimethylureido)benzyl)-5-ethyl-3-methyl-5,6,7,8-tetrahydroimidazo[1,5-a]pyrazine-1-carboxamide]
7.92 | 6.85 | CC(C)n1nc(C(=O)NCc2ccc(NC(=O)NCC3CCOC3)cc2)c2c1CCN(c1ccc(C(=O)N(C)C)cn1)C2 (racemic) [Example 155, rac-(R)-5-(5-(dimethylcarbamoyl)pyridin-2-yl)-1-isopropyl-N-(4-(3-((tetrahydrofuran-3-yl)methyl)ureido)benzyl)-4,5,6,7-tetrahydro-1H-pyrazolo[4,3-c]pyridine-3-carboxamide]
8.30 | 7.24 | CO[C@@H]1CN(C(=O)Nc2ccc(CNC(=O)c3nn(C(C)C)c4c3CN(c3ccc(C(=O)N(C)C)cn3)CC4)cc2)C[C@H]1F (racemic) [Example 171, rac-5-(5-(dimethylcarbamoyl)pyridin-2-yl)-N-(4-((3R,4R)-3-fluoro-4-methoxypyrrolidine-1-carboxamido)benzyl)-1-isopropyl-4,5,6,7-tetrahydro-1H-pyrazolo[4,3-c]pyridine-3-carboxamide]
7.40 | 6.67 | CC(C)n1nc(C(=O)NCc2ccc(NC(=O)N3CCCC3CO)cc2)c2c1CCN(c1ccc(C(=O)N(C)C)cn1)C2 (racemic) [Example 174, rac-(R)-5-(5-(dimethylcarbamoyl)pyridin-2-yl)-N-(4-(2-(hydroxymethyl)pyrrolidine-1-carboxamido)benzyl)-1-isopropyl-4,5,6,7-tetrahydro-1H-pyrazolo[4,3-c]pyridine-3-carboxamide]
